Values after ≈ are worked out from the molar mass of the structure shown. Each block holds one compound with its values, some of them ahead of it.
What was measured:
[1] = Solubility of calcimimetics in oil phases (RP-HPLC); assay type: physicochemical; settings: long-chain oil phases; for solubility at 18 h: oil or lipid, thermodynamic from solid
Method: The solubility measurements of the compounds were prepared by the addition of 1 g of drug substance to two milliliters of oil into a Wheaton 5 mL vial. The headspace was sparged with nitrogen, and enclosed with a West 4405/50 gray Teflon coated stopper and manually sealed by an aluminum overseal. The preparations were repeated again with the oils containing either purified egg or soy lecithin. All labeled vials were shaken at room temperature for eighteen hours on a platform shaker. After eighteen hours, the samples were diluted in mobile phase, and analyzed by the RP-HPLC method. Table 2 summarizes solubility results (expressed in mg/mL) of cinacalcet in various oil phases.

[2] = Zeta potential titration of emulsions (droplet charge vs pH); assay type: physicochemical; settings: SBO 10%, Lecithin 2% at pH 7; 5 mg/mL (formulation #1) versus 1 mg/mL (formulation #2)
Method: Panel A, titration results of 1% EYP/10% SBO in 1 mM dibasic phosphate. Panel B, titration results of cinacalcet/1% EYP/10% SBO in 1 mM dibasic phosphate. Other components of the emulsions include 10% soybean oil, 1% egg lecithin, 2.25% glycerin and water. Panel C, titration results for Compound A. Emulsion composition: SBO 10%, Lecithin 2% at pH 7. Concentration of Compound A was 5 mg/mL for formulation #1 and 1 mg/mL for formulation #2.
The zeta potential measurements were made on a Malvern Zetasizer 4 laser-scattering particle electrophoretic analyzer that measures the electrophoretic mobility and zeta potential distribution. Samples were prepared for the zeta potential titration by diluting the emulsion approximately 2500 fold in 1 mM dibasic phosphate pH 9 and titrating the solution with 100 mM phosphoric acid in 0.5 pH unit increments. […] Theoretically, the emulsions are stabilized by this charge, which prevents the droplets from coalescing. […] In contrast, the cinacalcet emulsions achieve charge neutrality in the range of pH 7-7.5.

[3] = Long-term storage stability of emulsions (assay, pH, particle size); assay type: physicochemical; settings: Compound A emulsions; over 14 months at any of the storage conditions tested
Method: Calcimimetics emulsions for long-term studies were prepared at 5 mg/mL drug concentration, 5% SBO, 2% egg lecithin, 2% glycerin, 20 mM TRIS buffer at pH 9. The emulsions were packed in glass vials at 20 mL each and stored inverted in stability chambers. At each time-point, 3 vials from each chamber were pulled and analyzed for the calcimimetic concentration, pH and particle size. […] The values for pH dropped over time, with greater magnitude of drop seen at higher temperature.

[4] = Loss in drug strength due to adsorption to PVC tubing; assay type: physicochemical
Method: A solution of compound A was prepared in acetate mannitol buffer at pH 4. At this pH, the compound forms a clear solution of concentration 0.2 mg/mL. An equivalent emulsion was prepared at the same concentration with 5% soybean oil, 2% lecithin, 2% glycerin and 20 mM TRIS buffer at pH 9. PVC tubing was selected as an example of commonly used intravenous infusion set. 15 cm sections of this tube were filled with either the solution or emulsion formulation and clamped on both ends. These filled tubes were held at the ambient temperature for 1 hour. The formulations inside were collected and analyzed for drug content using reversed phase HPLC. […] Panel A: Compound A in acetate/mannitol solution, pre-exposure. Panel B: compound A in acetate/mannitol solution, after 1 hour of exposure to the PVC tubing. Panel C: compound A formulated in the emulsion of the invention, pre-exposure. Panel D: compound A formulated in the emulsion of the invention, pre-exposure, after 1 hour of exposure to the PVC tubing.

rabbit ear vein = assay: Acute local venous toxicity / irritation in the rabbit ear vein (REV); assay type: in vivo; set-up: Erythema / Edema: scale not given here
Excerpt: This Example illustrates the protective effect of the formulations of the invention as measured by irritation in the rabbit ear vein (REV). A typical protocol for evaluation of the local tolerance for formulations was as follows.
Dosing of animals. The rabbits used were male New Zealand rabbits weighing approximately 2.5 to 4 kg. The rabbits were acclimatized for a period of 10 days following receipt before the start of the study. The rabbits were randomized into groups based on the number of formulations to be studied. Typically 3 rabbits were used per group.
For each group of rabbits, the formulation containing the drug to be tested was dosed in the right marginal ear vein, with the corresponding placebo being dosed at the same time in the left marginal ear vein. The placebos were prepared such that they matched the formulation composition, and the technique of dosing for the drug formulations and the placebo formulations were kept the same. Typical dosing volumes ranged from 1 mL/kg to 5 mL/kg. The formulations were either dosed as (a) bolus injection wherein the entire dosing volume was administered within 5 minutes; (b) 30 minute infusion; or (c) a 2 hour infusion. The formulations were administered through appropriately sized syringes and catheters. The injection sites were marked with indelible ink for identification at each observation period. The rabbits were dosed based upon the Day 1 body weight.
Observation of animals. Each animal was observed cage side at least twice daily for mortality/morbundity. Each animal received a detailed clinical observation once prior to randomization, once prior to dosage administration and once daily thereafter.
Any abnormalities were recorded as they were observed. Observations for local irritation were scored according to the following scale
At each interval the area of irritation (if present) was also measured. The actual length and width in mm was recorded.
On day 3 the animals were euthanized and the tissues from the Pinna of the left and right ear, and any gross lesions (if present) of the ear or ear vein were collected. Histopathology was performed on the collected tissues. After fixation, the pinna was tripped into a total of 4 sections of 1 cm each; one of which included the deposition site (location of the end of the catheter in the ear) and one from approximately 1-, 2-, and 3-cm downstream from the deposition site. Each section included skin, cartilage, vein and other soft tissue. These tissues were then embedded in paraffin, sectioned and stained with hematoxylin and eosin, and examined via light microscopy.

cytochrome P450 2D6 = cytochrome P450 2D6 (Homo sapiens, UniProt P10635); settings: stated as known; cited from earlier work
[5] = emulsion with TRIS buffer 20 mM, pH 9, 2-hour infusion, 2 mg/kg (conc. 5 mg/mL), 0 h
[6] = emulsion with TRIS buffer 20 mM, pH 9, 2-hour infusion, 2 mg/kg (conc. 5 mg/mL), 48 h
[7] = emulsion with TRIS buffer 20 mM, pH 9, 2-hour infusion, 6 mg/kg (conc. 5 mg/mL), 0 h
[8] = emulsion with TRIS buffer 20 mM, pH 9, 2-hour infusion, 6 mg/kg (conc. 5 mg/mL), 48 h
[9] = solution in acetate mannitol buffer, pH 4, 2 hour infusion, 1 mg/kg (conc. 0.1 mg/mL), 0 h
[10] = solution in acetate mannitol buffer, pH 4, 2 hour infusion, 1 mg/kg (conc. 0.1 mg/mL), 48 h

Sequence of cytochrome P450 2D6 (P10635 whole entry, the tested form may be a part): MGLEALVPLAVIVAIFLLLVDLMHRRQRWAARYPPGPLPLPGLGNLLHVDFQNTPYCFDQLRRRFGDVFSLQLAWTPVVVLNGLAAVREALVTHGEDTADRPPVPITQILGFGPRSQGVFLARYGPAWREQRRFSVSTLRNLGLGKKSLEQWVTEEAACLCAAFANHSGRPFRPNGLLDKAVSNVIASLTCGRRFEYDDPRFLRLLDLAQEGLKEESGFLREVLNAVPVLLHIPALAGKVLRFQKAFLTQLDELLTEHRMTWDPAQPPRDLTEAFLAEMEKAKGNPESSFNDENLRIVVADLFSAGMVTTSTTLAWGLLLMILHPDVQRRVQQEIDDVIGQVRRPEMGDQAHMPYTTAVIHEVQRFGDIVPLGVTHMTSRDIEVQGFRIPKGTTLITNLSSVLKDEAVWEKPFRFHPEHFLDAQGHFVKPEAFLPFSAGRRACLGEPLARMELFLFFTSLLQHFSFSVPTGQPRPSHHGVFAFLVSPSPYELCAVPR

Compound: COc1ccc(CN[C@H](C)c2ccccc2)cc1-c1ccc(C(F)(F)F)cc1 [Compound A, (1R)—N-((6-(methyloxy)-4′-(trifluoromethyl)-1,1′-biphenyl-3-yl)methyl)-1-phenylethanamine]
- solubility at 18 h [1]: > 300 mg/mL
- pH at which emulsion reaches neutral charge [2]: reaches neutral charge at a higher pH
- change in particle size [3]: No change
- difference in concentration of drug before or after exposure to tubing ([4]; 0.2 mg/mL emulsion (5% soybean oil, 2% lecithin, 2% glycerin, 20 mM TRIS, pH 9), 1 hour): no significant difference
- drug concentration after 1 hour holding in the tubing ([4]; 0.2 mg/mL solution in acetate mannitol buffer at pH 4, ambient temperature): about 50 % of initial concentration
- local venous toxicity (rabbit ear vein; dosed as a solution): evidence of local venous toxicity
- effect on the vasculature (rabbit ear vein; emulsion containing Compound A): protective effect on the vasculature
- Edema (rabbit ear vein; [5]): 0.0 ± 0.0
- Erythema (rabbit ear vein; [5]): 0.0 ± 0.0
- Edema (rabbit ear vein; [6]): 0.0 ± 0.0
- Erythema (rabbit ear vein; [6]): 0.0 ± 0.0
- Edema (rabbit ear vein; [7]): 0.0 ± 0.0
- Erythema (rabbit ear vein; [7]): 0.0 ± 0.0
- Edema (rabbit ear vein; [8]): 0.0 ± 0.0
- Erythema (rabbit ear vein; [8]): 0.0 ± 0.0
- Histopathology: severity and incidence of edema, hemorrhage and subacute inflammation (rabbit ear vein; emulsion with TRIS buffer 20 mM, pH 9, 2-hour infusion, 2 and 6 mg/kg, compared to the solution): much lower in all thee animals as compared
- Edema (rabbit ear vein; [9]): 0.0 ± 0.0
- Erythema (rabbit ear vein; [9]): 0.0 ± 0.0
- Edema (rabbit ear vein; [10]): 0.0 ± 0.0
- Erythema (rabbit ear vein; [10]): 1.3 ± 2.3
- Histopathology: severity and incidence of edema, hemorrhage and subacute inflammation (rabbit ear vein; solution in acetate mannitol buffer, pH 4, 2 hour infusion, 1 mg/kg, compared to placebo): higher in the ears treated with Compound A

- solubility at 18 h [1]: 50 mg/mL (≈ 111 mM)
Compound: COc1ccc(CN[C@H](C)c2cccc3ccccc23)cc1-c1ccc(OC(F)(F)F)cc1 [Compound B, (1R)—N-((6-(methyloxy)-4′-((trifluoromethyl)oxy)-1,1′-biphenyl-3-yl)methyl)-1-(1-naphthalenyl)ethanamine]

- solubility at 18 h [1]: > 300 mg/mL
Compound: COc1ccc(CN[C@H](C)c2ccccc2)cc1-c1ccc(OC(F)(F)F)cc1 [Compound C, (1R)—N-((6-(methyloxy)-4′-((trifluoromethyl)oxy)-1,1′-biphenyl-3-yl)methyl)-1-phenylethanamine]

- solubility at 18 h [1]: > 300 mg/mL
Compound: COc1ccc(CN[C@H](C)c2cccc(F)c2)cc1-c1ccc(C(F)(F)F)cc1 [Compound D, (1R)-1-(3-fluorophenyl)-N-((6-(methyloxy)-4′-(trifluoromethyl)-1,1′-biphenyl-3-yl)methyl)ethanamine]

- solubility at 18 h [1]: > 300 mg/mL
Compound: COc1ccc(CN[C@H](C)c2cccc(Cl)c2)cc1-c1ccc(C(F)(F)F)cc1 [Compound E, (1R)-1-(3-chlorophenyl)-N-((6-(methyloxy)-4′-(trifluoromethyl)-1,1′-biphenyl-3-yl)methyl)ethanamine]

- solubility at 18 h [1]: > 300 mg/mL
Compound: CCn1cc(-c2cccc(C(F)(F)F)c2)c2cc(CN[C@H](C)c3ccccc3)ccc21 [Compound F, (1R)—N-((1-ethyl-3-(3-(trifluoromethyl)phenyl)-1H-indol-5-yl)methyl)-1-phenylethanamine]

- Solubility [1]: >50 mg/mL
Compound: COc1ccc([C@@H](C)N[C@H](C)c2ccccc2)cc1-c1ccc(C(F)(F)F)cc1 [Compound G]

Compound: C[C@@H](NCc1ccc(Cl)c(-c2ccc(OC(F)(F)F)cc2)c1)c1cccc2ccccc12 [Compound H, (1R)—N-((6-chloro-4′-((trifluoromethyl)oxy)-3-biphenyl)methyl)-1-(1-naphthalenyl)ethanolamine]
- Solubility [1]: >50 mg/mL

Compound: C[C@@H](NCCCc1cccc(C(F)(F)F)c1)c1cccc2ccccc12 [Sensipar]
- metabolism (cytochrome P450 2D6): metabolized by cytochrome P450 2D6

From patent publication US8779004B2, “Stable emulsion formulations” (Amgen, Inc., priority 2006, dated 2014)
